Laboratory results reported in ChEMBL document CHEMBL1201862, “PubChem BioAssay data set” (2004).
The source made the active and inactive calls.

Legend:
[1] = molecular target: T1, Caspase-3 (Homo sapiens, UniProt P42574); type: functional;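 further: Dose-response selectivity test against caspase-3 for candidate inhibitors of sentrin-specific proteases (SENPs)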
T1 sequence (P42574 whole entry): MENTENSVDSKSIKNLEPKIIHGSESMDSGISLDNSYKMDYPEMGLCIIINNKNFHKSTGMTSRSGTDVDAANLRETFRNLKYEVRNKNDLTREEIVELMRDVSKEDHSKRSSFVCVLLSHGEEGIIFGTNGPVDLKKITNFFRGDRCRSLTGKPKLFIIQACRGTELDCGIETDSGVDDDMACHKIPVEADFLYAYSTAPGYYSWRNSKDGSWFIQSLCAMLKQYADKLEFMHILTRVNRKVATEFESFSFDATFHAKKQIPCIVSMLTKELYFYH

[2] = molecular target: T2, Sentrin-specific protease 6 (Homo sapiens, UniProt Q9GZR1); type: functional;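 further: Luminescence-based dose-response confirmatory assay of SENP6 inhibition, following up an ultra-high-throughput screen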
T2 sequence (Q9GZR1 whole entry): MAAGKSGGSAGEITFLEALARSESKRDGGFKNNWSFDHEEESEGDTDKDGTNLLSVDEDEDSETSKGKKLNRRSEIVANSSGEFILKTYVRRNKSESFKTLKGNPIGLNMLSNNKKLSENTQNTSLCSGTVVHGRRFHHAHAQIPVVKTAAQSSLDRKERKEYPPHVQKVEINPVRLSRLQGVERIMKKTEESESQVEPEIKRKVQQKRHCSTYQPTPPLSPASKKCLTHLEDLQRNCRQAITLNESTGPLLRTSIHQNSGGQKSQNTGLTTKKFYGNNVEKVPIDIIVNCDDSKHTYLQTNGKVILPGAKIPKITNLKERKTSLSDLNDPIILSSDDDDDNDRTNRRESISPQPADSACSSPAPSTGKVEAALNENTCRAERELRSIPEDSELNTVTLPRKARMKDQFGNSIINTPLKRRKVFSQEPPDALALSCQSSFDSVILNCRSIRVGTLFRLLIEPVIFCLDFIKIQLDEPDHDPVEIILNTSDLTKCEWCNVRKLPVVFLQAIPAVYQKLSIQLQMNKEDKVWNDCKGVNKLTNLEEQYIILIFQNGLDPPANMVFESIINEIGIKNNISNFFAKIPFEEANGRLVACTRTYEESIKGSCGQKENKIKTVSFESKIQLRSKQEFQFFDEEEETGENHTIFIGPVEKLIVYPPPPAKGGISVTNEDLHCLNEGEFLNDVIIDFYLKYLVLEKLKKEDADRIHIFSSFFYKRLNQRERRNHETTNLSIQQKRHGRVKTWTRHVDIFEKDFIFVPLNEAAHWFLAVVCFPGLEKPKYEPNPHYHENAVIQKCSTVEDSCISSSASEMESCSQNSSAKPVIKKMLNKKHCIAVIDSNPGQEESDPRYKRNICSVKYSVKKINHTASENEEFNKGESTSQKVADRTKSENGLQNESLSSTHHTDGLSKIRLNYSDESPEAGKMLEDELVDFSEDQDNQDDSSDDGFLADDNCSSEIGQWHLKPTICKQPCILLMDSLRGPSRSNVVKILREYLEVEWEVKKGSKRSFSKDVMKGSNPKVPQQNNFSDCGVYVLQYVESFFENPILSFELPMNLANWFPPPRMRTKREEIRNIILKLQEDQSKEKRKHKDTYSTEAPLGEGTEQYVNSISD

[3] = molecular target: Fructose-bisphosphate aldolase (Mycobacterium tuberculosis, UniProt P9WQA3); assay: Fluorescence-based biochemical high throughput dose response assay for inhibitors of the fructose-bisphosphate aldolase (FBA) of M. tuberculosis.; type: functional
[4] = test system: HEK293; assay: SAR Analysis of small molecule inhibitors of T-cell specific antigen receptor-induced NF-kB activation in a HEK-293T cell line using a luminescence assay - Set 2. [Related pubchem assays (depositor defined):AID435003, AID435012, AID489026]; type: functional, cell-based; details: Homo sapiens
[5] = test system: Vero; assay: cells; type: functional, cell-based; details: Chlorocebus sabaeus
[6] = test system: HEK293; assay: cytotoxicity in HEK293T NF-kB-Luc cells, SAR follow-up, cytotoxicity control for NF-kB activator project, cell-based, resazurin fluorescence (AID 493251); type: functional; details: Homo sapiens
[7] = control 3'UTR Renilla luciferase suppression, dose response, counter-screen for Shn3 inhibitor project, cell-based, Clone20-Shn3RL, cherry-picked (AID 624133); type: functional
[8] = molecular target: Large T antigen (Simian virus 40, UniProt P03070); assay: A confirmatory biochemical assay using the ADP-Hunter methodology, purified TAg, and ATP to quantify activity of synthesized compounds that inhibit the ATPase activity of Tag (3). [Related pubchem assays (depositor defined):AID1903, AID1909, AID2102, AID2501, AID2615, AID2775, AID435001, AID449729]; parameters: species or system Betapolyomavirus macacae
[9] = cytotoxicity toward HCT116 cells – cell-based, CellTiter-Glo luminescence, IC50, dose response (AID 1117332); type: functional; details: HCT-116

Sequence of Large T antigen (P03070 whole entry): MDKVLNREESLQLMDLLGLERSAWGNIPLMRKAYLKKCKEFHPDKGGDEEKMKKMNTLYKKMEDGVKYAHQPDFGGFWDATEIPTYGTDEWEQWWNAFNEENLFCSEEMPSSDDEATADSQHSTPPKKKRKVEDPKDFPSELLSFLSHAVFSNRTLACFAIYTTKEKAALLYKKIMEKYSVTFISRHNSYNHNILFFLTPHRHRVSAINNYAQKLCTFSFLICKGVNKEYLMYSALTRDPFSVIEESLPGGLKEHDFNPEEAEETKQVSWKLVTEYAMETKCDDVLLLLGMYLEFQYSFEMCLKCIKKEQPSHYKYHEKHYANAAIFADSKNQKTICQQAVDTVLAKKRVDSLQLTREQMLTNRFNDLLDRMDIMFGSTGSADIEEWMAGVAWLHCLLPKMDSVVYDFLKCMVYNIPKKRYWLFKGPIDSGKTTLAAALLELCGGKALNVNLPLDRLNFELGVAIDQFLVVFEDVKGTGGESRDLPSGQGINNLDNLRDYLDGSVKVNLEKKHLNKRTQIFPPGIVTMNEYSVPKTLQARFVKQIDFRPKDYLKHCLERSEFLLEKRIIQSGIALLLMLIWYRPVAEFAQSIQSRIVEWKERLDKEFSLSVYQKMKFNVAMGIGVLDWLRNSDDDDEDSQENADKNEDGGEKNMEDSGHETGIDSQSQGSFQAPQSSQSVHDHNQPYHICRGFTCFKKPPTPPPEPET
Sequence of Fructose-bisphosphate aldolase (P9WQA3 whole entry): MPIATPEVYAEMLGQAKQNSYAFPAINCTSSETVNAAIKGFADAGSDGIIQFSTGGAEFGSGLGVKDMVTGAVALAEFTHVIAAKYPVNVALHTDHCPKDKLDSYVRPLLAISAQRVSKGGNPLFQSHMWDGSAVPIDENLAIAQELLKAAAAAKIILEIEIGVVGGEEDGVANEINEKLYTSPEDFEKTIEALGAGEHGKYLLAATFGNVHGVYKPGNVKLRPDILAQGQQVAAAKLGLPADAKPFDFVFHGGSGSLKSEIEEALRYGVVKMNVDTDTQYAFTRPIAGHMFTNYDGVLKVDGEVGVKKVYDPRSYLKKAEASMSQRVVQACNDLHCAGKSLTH

N#Cc1c(N2CCCCC2)nc(N)c2c(N)nc(SCC(=O)O)cc12
IC50 [1]: 33.7 µM (active) | IC50 [2]: 8.26 µM (active) | IC50 [3]: 8.03 µM (active)

CCCC(=O)NC(c1ccc(C(C)C)cc1)c1ccc2cccnc2c1O (centres undefined)
IC50 [4]: 3.76 µM (active) | IC50 [5]: > 25 µM (active) | IC50 [6]: 24.8 µM (inactive) | AC50 [7]: 0.938 µM (active)

Oc1c(Cl)cc(Cl)c(Cl)c1Cc1c(O)c(Cl)cc(Cl)c1Cl [HEXACHLOROPHENE]
IC50 [8]: 34.5 µM (active) | IC50 [9]: 0.0312 µM (active)
